13 molecules from patent publication US20240269139A1, “COMPOUNDS FOR TARGETED PROTEIN DEGRADATION OF KINASES” (DANA-FARBER CANCER INSTITUTE, INC., priority 2020, published 2024) can be followed below.

Like-named read-outs stand apart in the source and are kept apart here.

What all share (format): cell-based
Assay [1] addresses T1, protein kinases (human kinome) (Homo sapiens, UniProt Q6PHR2).
T1 sequence (Q6PHR2 1-472): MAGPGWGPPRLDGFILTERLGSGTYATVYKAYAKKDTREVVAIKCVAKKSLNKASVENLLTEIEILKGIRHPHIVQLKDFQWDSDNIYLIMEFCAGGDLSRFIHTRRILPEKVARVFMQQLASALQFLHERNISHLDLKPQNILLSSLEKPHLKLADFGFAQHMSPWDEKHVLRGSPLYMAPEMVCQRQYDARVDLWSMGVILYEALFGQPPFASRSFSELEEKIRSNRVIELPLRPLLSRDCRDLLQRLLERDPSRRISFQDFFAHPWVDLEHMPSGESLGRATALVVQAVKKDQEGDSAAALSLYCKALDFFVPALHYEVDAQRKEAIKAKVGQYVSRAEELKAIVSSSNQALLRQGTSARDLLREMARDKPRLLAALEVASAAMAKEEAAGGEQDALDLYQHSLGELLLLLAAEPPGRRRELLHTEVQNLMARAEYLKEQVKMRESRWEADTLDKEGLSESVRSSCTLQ
To be noted: for logFC ULK3: ULK3 (Q6PHR2-1).

For assay [2], the target named is protein kinases (human kinome) (Homo sapiens, UniProt P06239).
Sequence of protein kinases (human kinome) (Homo sapiens, UniProt P06239) (P06239 whole entry): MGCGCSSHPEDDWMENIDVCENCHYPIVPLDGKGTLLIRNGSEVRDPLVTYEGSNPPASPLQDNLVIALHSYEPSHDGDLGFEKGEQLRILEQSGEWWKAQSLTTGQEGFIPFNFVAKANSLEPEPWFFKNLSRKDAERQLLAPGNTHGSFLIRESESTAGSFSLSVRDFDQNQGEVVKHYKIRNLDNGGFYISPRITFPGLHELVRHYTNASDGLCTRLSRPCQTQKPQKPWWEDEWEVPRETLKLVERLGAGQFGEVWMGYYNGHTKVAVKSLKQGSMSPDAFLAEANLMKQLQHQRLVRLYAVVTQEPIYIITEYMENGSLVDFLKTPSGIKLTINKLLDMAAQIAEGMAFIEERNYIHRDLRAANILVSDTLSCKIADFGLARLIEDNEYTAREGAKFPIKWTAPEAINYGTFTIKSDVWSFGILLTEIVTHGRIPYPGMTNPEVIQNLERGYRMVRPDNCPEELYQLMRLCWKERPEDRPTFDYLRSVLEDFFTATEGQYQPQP
The target of assay [3] is protein kinases (human kinome) (Homo sapiens, UniProt P35790). To be noted: CHKA P35790.
Sequence of protein kinases (human kinome) (Homo sapiens, UniProt P35790) (P35790 whole entry): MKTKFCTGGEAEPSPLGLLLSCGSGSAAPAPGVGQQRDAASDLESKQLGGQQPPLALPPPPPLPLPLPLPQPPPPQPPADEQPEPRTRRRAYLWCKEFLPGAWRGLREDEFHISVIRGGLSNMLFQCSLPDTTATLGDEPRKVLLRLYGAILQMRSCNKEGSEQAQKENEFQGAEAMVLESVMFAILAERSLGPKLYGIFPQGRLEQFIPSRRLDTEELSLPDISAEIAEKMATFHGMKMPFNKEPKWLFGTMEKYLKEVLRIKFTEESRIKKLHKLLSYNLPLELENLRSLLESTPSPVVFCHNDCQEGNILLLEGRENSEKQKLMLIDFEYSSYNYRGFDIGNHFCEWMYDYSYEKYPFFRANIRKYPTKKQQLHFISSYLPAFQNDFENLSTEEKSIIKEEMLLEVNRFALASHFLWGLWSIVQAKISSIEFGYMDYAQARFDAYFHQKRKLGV
Assay [4] addresses protein kinases (human kinome) (Homo sapiens, UniProt P21127). To be noted: CDK11B P21127-1; experiment wp168.
Assay [5] has as its target protein kinases (human kinome) (Homo sapiens, UniProt P06493). To be noted: CDK1 P06493.
In assay [6] the target is protein kinases (human kinome) (Homo sapiens, UniProt P49840). Particulars: GSK3A P49840.
Sequence of protein kinases (human kinome) (Homo sapiens, UniProt P49840) (P49840 whole entry): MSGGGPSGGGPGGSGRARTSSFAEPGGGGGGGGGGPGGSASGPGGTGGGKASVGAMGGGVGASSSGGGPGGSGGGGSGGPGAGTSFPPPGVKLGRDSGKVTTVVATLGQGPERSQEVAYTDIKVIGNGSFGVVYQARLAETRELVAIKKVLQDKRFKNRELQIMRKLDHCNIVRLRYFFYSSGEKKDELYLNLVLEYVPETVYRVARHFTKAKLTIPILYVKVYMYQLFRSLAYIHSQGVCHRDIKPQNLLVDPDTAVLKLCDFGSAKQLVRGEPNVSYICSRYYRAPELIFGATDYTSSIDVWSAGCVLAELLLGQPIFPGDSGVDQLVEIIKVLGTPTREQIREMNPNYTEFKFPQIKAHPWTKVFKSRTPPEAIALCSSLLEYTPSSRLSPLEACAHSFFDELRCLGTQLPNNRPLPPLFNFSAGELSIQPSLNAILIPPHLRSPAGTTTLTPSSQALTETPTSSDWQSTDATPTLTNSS
Assay [7] has as its target protein kinases (human kinome) (Homo sapiens, UniProt P06241). To be noted: for logFC FYN: Accession P06241-1; for logFC: FYN (P06241-1), direction down.
Where [8] appears, read: LCK, accession P06239-1, experiment wp081, direction of change down.

Sequence of protein kinases (human kinome) (Homo sapiens, UniProt P06493) (P06493 whole entry): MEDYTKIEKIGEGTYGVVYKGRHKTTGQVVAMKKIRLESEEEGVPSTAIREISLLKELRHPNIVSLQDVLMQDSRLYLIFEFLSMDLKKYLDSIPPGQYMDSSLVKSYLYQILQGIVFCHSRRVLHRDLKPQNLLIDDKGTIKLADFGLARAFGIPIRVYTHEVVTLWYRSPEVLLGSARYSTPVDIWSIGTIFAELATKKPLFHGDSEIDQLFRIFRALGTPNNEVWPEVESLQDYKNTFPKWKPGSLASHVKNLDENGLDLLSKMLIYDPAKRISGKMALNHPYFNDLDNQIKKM
Sequence of protein kinases (human kinome) (Homo sapiens, UniProt P21127) (P21127 whole entry): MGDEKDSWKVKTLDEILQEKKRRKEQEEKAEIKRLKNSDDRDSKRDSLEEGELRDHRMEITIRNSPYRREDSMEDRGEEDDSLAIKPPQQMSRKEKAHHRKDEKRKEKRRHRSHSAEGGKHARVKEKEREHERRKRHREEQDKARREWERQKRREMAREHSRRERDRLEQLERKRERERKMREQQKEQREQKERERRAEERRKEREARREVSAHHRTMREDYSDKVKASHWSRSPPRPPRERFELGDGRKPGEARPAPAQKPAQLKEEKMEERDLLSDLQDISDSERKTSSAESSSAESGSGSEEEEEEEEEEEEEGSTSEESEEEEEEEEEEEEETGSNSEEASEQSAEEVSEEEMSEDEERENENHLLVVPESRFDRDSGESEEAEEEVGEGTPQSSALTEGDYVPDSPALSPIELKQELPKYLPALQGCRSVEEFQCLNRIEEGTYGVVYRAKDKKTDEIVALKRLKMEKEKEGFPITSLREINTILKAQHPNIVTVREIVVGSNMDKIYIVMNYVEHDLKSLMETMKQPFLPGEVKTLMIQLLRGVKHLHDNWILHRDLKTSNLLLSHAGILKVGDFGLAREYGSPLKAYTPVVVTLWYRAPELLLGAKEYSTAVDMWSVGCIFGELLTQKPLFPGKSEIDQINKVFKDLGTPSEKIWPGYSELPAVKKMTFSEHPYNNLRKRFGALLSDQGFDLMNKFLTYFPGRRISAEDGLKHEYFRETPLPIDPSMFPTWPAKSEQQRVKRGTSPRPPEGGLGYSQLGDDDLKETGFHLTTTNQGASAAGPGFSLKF
Sequence of protein kinases (human kinome) (Homo sapiens, UniProt P06241) (P06241 whole entry): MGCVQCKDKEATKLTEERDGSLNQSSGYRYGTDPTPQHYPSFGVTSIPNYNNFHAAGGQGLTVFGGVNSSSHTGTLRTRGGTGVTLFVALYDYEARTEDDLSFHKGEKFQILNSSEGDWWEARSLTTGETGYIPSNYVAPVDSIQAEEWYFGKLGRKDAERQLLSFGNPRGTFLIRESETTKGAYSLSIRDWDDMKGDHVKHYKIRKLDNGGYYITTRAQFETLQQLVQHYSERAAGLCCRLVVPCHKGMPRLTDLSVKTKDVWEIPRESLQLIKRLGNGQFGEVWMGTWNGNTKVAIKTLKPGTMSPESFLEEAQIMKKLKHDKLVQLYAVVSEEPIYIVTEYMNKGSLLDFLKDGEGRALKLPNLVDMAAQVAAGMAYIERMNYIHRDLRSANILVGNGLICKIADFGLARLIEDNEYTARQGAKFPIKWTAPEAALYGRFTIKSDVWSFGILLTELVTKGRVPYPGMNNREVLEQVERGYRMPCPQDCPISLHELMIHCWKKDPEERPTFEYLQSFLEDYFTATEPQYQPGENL

For `CS(=O)(=O)Nc1cccc(-c2csc3cnc(Nc4ccc(N5CCN(CCCCCOc6cccc7c6C(=O)N(C6CCC(=O)NC6=O)C7=O)CC5)cc4)nc23)c1` (stereo not drawn) [DB0614, N-(3-(2-((4-(4-(5-((2-(2,6-Dioxopiperidin-3-yl)-1,3-dioxoisoindolin-4-yl)oxy)pentyl)piperazin-1-yl)phenyl)amino)thieno[3,2-d]pyrimidin-7-yl)phenyl)methanesulfonamide], in assay [1] (experiment wp045), the “logFC ULK3” value is on record as −0.9461 and the “logFC ULK3 (Q6PHR2-1)” value is −0.9461. In assay [1] (experiment wp117), the “logFC ULK3” value is recorded as −0.8307 and the “logFC ULK3 (Q6PHR2-1)” value is −0.8307.

As for `Cc1ccc(NC(=O)c2cccc(C(F)(F)F)c2)cc1N1Cc2cnc(Nc3ccc(N4CCN(CCCOc5cccc6c5C(=O)N(C5CCC(=O)NC5=O)C6=O)CC4)nc3)nc2N(C)C1=O` (stereo not drawn) [DB0662], the “logFC LCK” value in assay [2] (LCK P06239-1, experiment wp168) is listed as −0.9078; in assay [2] (LCK, accession P06239-1, experiment wp168, direction of change down) it was −0.9078. For the same molecule, the logFC in assay [3] (experiment wp168) is listed as −0.3222; in assay [4] it was −0.5946. For the same molecule, the “logFC CDK11B” value in assay [4] is recorded as −0.5946.

On to `Cc1ccc(NC(=O)c2cccc(C(F)(F)F)c2)cc1N1Cc2cnc(Nc3ccc(N4CCN(CCCCC(=O)N[C@H](C(=O)N5C[C@H](O)C[C@H]5C(=O)N[C@@H](C)c5ccc(-c6scnc6C)cc5)C(C)(C)C)CC4)nc3)nc2N(C)C1=O` [DB1113], for which, in assay [4], the logFC is reported as −0.8736 and the “logFC CDK11B” value is given as −0.8736.

With `Cc1ncsc1-c1ccc([C@H](C)NC(=O)[C@@H]2C[C@@H](O)CN2C(=O)[C@@H](NC(=O)CCOCCOCCN2CCN(c3ccc(Nc4ncc(Cl)c(Nc5ccccc5S(=O)(=O)C(C)C)n4)cc3)CC2)C(C)(C)C)cc1` [FMF.06.098.1], the results for the logFC in assay [3] (experiment wp108), in assay [3] (experiment wp131) and in assay [5] (experiment wp131) were −0.3716, −0.4457 and −0.3535, respectively. In addition, the “logFC CDK1” value in assay [5] (experiment wp131) is −0.3535.

For `O=C1CCC(N2C(=O)c3cccc(NCCCCCCCCN4CCC(NC(=O)c5[nH]ncc5NC(=O)c5c(Cl)cccc5Cl)CC4)c3C2=O)C(=O)N1` (stereo not drawn) [MFH.5.126.1], in assay [6] (experiment wp076), the logFC was −0.7531 and the “logFC GSK3A” value is listed as −0.7531. In addition, in assay [3] (experiment wp076), the logFC is −0.4653.

For the molecule `CS(=O)(=O)Nc1cccc(-c2csc3cnc(Nc4ccc(N5CCN(CCOCCOCCOc6cccc7c6C(=O)N(C6CCC(=O)NC6=O)C7=O)CC5)cc4)nc23)c1` (stereo not drawn) [RSS0628], in assay [1] (experiment wp045), the “logFC ULK3” value is on record as −1.086 and the “logFC ULK3 (Q6PHR2-1)” value is listed as −1.086.

As to `Cc1ncsc1-c1ccc([C@H](C)NC(=O)[C@@H]2C[C@@H](O)CN2C(=O)[C@@H](NC(=O)CCCCCN2CCN(c3ccc(Nc4ncc5scc(-c6cccc(NS(C)(=O)=O)c6)c5n4)cc3)CC2)C(C)(C)C)cc1` [RSS0680, (2S,4R)-1-((S)-3,3-Dimethyl-2-(6-(4-(4-((7-(3-(methylsulfonamido)phenyl)thieno[3,2-d]pyrimidin-2-yl)amino)phenyl)piperazin-1-yl)hexanamido)butanoyl)-4-hydroxy-N—((S)-1-(4-(4-methylthiazol-5yl)phenyl)ethyl)pyrrolidine-2-carboxamide], in assay [5] (experiment wp117), the logFC is given as −0.3587 and the “logFC CDK1” value is reported as −0.3587.

As to `Cc1ccc(C(=O)Nc2ccc(CN3CCN(CCCOCCOCCOCCNC(=O)COc4cccc5c4C(=O)N(C4CCC(=O)NC4=O)C5=O)CC3)c(C(F)(F)F)c2)cc1C#Cc1cnc2cccnn12` (stereo not drawn) [SB1.G.187], in assay [7] (experiment wp105), the “logFC FYN” value is given as −0.7697 and the logFC is −0.7697. Further, in assay [7] (experiment wp107), the “logFC FYN” value is reported as −0.3601 and the logFC is listed as −0.3601.

For the molecule `Cn1c(=O)c(-c2c(Cl)cccc2Cl)cc2cnc(Nc3ccc(OCCNC(=O)CCCCCCNC(=O)COc4cccc5c4C(=O)N(C4CCC(=O)NC4=O)C5=O)cc3)nc21` (stereo not drawn) [SB1.G.192.1], the “logFC LCK” value in assay [2] (LCK P06239-1, experiment wp081) is listed as −1.748; in assay [2] (setting [8]) it was −1.748. The “logFC FYN” value in assay [7] (experiment wp081) was −0.9314. For the same molecule, in assay [7] (experiment wp081), the logFC is recorded as −0.9314.

Take `CC(C)S(=O)(=O)c1ccccc1Nc1nc(Nc2ccc(N3CCN(CCOCCNC(=O)CNc4cccc5c4C(=O)N(C4CCC(=O)NC4=O)C5=O)CC3)cc2)ncc1Cl` (stereo not drawn) [SK.3.91]: the “logFC LCK” value in assay [2] (LCK P06239-1, experiment wp160, 2 hr) was −0.4627; in assay [2] (LCK P06239-1, experiment wp160, 4 hr) it was −1.173; in assay [2] (LCK, accession P06239-1, experiment wp160, 2 hr, direction of change down), −0.4627; in assay [2] (LCK, accession P06239-1, experiment wp160, 4 hr, direction of change down), −1.173. In addition, the “logFC ULK3 (Q6PHR2-1)” value is given as −0.503 in assay [1] (Experiment wp160, 2 hr); −0.8151 in assay [1] (Experiment wp172); −1.03 in assay [1] (experiment wp016, 1 uM); −0.9651 in assay [1] (experiment wp103); −0.837 in assay [1] (experiment wp105); −0.5817 in assay [1] (experiment wp133, 2 hr). Also, the “logFC ULK3 (Q6PHR2-1)” value in assay [1] (experiment wp133, 4 hr) was −1.062; in assay [1] (experiment wp160, 4 hr), −0.9689. Moreover, the “logFC ULK3” value in assay [1] (experiment wp016, 1 uM) is listed as −1.03; in assay [1] (experiment wp103), −0.9651; in assay [1] (experiment wp105) it was −0.837; in assay [1] (experiment wp133, 2 hr) it was −0.5817; in assay [1] (experiment wp133, 4 hr), −1.062; in assay [1] (experiment wp160, 2 hr) it was −0.503. Further, the “logFC ULK3” value is reported as −0.9689 in assay [1] (experiment wp160, 4 hr) and −0.8151 in assay [1] (experiment wp172). The “logFC FYN” value in assay [7] (experiment wp105) is given as −0.3586; in assay [7] (experiment wp107), −0.4288. For the same molecule, the logFC in assay [7] (experiment wp105) is reported as −0.3586; in assay [7] (experiment wp107), −0.4288.

`CC(C)S(=O)(=O)c1ccccc1Nc1nc(Nc2ccc(N3CCN(CCOCCOCCNC(=O)CNc4cccc5c4C(=O)N(C4CCC(=O)NC4=O)C5=O)CC3)cc2)ncc1Cl` (stereo not drawn) [TL12.186]: the logFC in assay [3] (experiment wp131) is −0.3954. In assay [1] (experiment wp131), the “logFC ULK3” value was −1.074 and the “logFC ULK3 (Q6PHR2-1)” value was −1.074. Also, in assay [1] (experiment wp137), the “logFC ULK3” value was −1.174 and the “logFC ULK3 (Q6PHR2-1)” value is on record as −1.174.

Consider `Cc1ccc(C(=O)Nc2ccc(CN3CCN(CCOCCOCCNC(=O)CNc4cccc5c4C(=O)N(C4CCC(=O)NC4=O)C5=O)CC3)c(C(F)(F)F)c2)cc1C#Cc1cnc2cccnn12` (stereo not drawn) [TL13.150], for which the “logFC LCK” value in assay [2] (LCK P06239-1, experiment wp081) was −0.7129; in assay [2] (setting [8]) it was −0.7129.

Turning to `Nc1ncc(-c2ccc(S(=O)(=O)N(CCCNC(=O)CCOCCOCCOCCOCCOCCNc3cccc4c3C(=O)N(C3CCC(=O)NC3=O)C4=O)C3CC3)cc2)cc1-c1ccc2c(c1)CCNC2=O` (stereo not drawn) [WH.10417.099], the logFC in assay [6] (experiment wp056) was −0.5169; in assay [6] (experiment wp103), −0.443; in assay [6] (experiment wp105), −0.4499; in assay [6] (experiment wp107), −0.4697. Further, the “logFC GSK3A” value is reported as −0.5169 in assay [6] (experiment wp056), −0.443 in assay [6] (experiment wp103), −0.4499 in assay [6] (experiment wp105) and −0.4697 in assay [6] (experiment wp107).
